In PubChem BioAssay AID256 (DTP/NCI, 2004):
Where “and” joins values, the source holds several entries; their conditions need not be identical. Equal values may be shown once. Inconclusive results and toxic doses are left out. Rule for the calls: active = survival T/C of 150% or more; inactive = T/C below 125% in these data.

Tested on: CD2F1 mice, L1210 leukemia ip, survival T/C
Assay: NCI In Vivo Anticancer Drug Screen. Data for tumor model L1210 Leukemia (intraperitoneal) in CD2F1 (CDF1) mice
Details: higher = longer survival
How it was run: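 Tumor-bearing mice (transplanted tumor) were split into treated and vehicle control groups, and the measured endpoint of each treated group was divided by that of its vehicle controls.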

[1] = endpoint: mean survival time, dose: 100.0 mg/kg/injection, schedule: Q01DX001 (ip), vehicle: saline with Tween-80
[2] = endpoint: mean survival time, dose: 100.0 mg/kg/injection, schedule: Q01DX009 (ip), vehicle: saline with Tween-80
[3] = endpoint: mean survival time, dose: 200.0 mg/kg/injection, schedule: Q01DX009 (ip), vehicle: saline with Tween-80
[4] = endpoint: mean survival time, dose: 400.0 mg/kg/injection, schedule: Q01DX001 (ip), vehicle: saline with Tween-80
[5] = endpoint: mean survival time, dose: 400.0 mg/kg/injection, schedule: Q01DX009 (ip), vehicle: saline with Tween-80
[6] = endpoint: mean survival time, dose: 50.0 mg/kg/injection, schedule: Q01DX009 (ip), vehicle: saline with Tween-80
[7] = endpoint: mean survival time, dose: 100.0 mg/kg/injection, schedule: Q01DX001 (ip), vehicle: saline
[8] = endpoint: mean survival time, dose: 200.0 mg/kg/injection, schedule: Q01DX001 (ip), vehicle: saline
[9] = endpoint: mean survival time, dose: 200.0 mg/kg/injection, schedule: Q01DX001 (ip), vehicle: saline with Tween-80

Measured: T/C

CC12CCC(=O)C=C1CCC1C2CCC2(C)C1CCC2(O)C(=O)Cn1c(=O)cc[nH]c1=O (configuration not stated)
inactive: endpoint: mean survival time, dose: 12.5 mg/kg/injection, schedule: Q04DX003 (ip), vehicle: Klucel (hydroxypropylcellulose) (HPC) 100 % of control | endpoint: mean survival time, dose: 25.0 mg/kg/injection, schedule: Q04DX003 (ip), vehicle: Klucel (hydroxypropylcellulose) (HPC) 93 % of control | endpoint: mean survival time, dose: 50.0 mg/kg/injection, schedule: Q04DX003 (ip), vehicle: Klucel (hydroxypropylcellulose) (HPC) 94 % of control | endpoint: mean survival time, dose: 100.0 mg/kg/injection, schedule: Q04DX003 (ip), vehicle: Klucel (hydroxypropylcellulose) (HPC) 93 % of control | endpoint: mean survival time, dose: 200.0 mg/kg/injection, schedule: Q04DX003 (ip), vehicle: Klucel (hydroxypropylcellulose) (HPC) 93 % of control

CC(C(=O)c1ccccc1)C(c1ccccc1)N1CCCCC1 (configuration not stated)
inactive: [1] 92 % of control | [2] 87 % of control | [3] 96 % of control | [4] 90 % of control | [5] 93 % of control

CCO/C=C/C(=O)NC(=O)NC1CC(CO)CC1O (configuration not stated)
inactive: [6] 97 % of control | [2] 97 % of control | [3] 105 % of control

CC1(C2CC(=O)OC2=O)OCCO1 (configuration not stated)
inactive: endpoint: mean survival time, dose: 50.0 mg/kg/injection, schedule: Q01DX001 (ip), vehicle: saline 96 % of control | [7] 102 % of control | [8] 93 % of control

CC(C)(C)C1=CC(=O)C(C(C)(C)C)=C(N=[N+]=[N-])C1=O
inactive: [1] 101 % of control | [9] 97 % of control | [4] 97 % of control

c1coc(CNC2=NCCO2)c1
inactive: endpoint: mean survival time, dose: 100.0 mg/kg/injection, schedule: Q01DX001 (ip), vehicle: other 95 % of control | endpoint: mean survival time, dose: 200.0 mg/kg/injection, schedule: Q01DX001 (ip), vehicle: other 103 % of control | endpoint: mean survival time, dose: 400.0 mg/kg/injection, schedule: Q01DX001 (ip), vehicle: other 90 % of control

NNC(=O)Sc1ccccc1
inactive: [7] 107 % of control | [8] 111 % of control | endpoint: mean survival time, dose: 400.0 mg/kg/injection, schedule: Q01DX001 (ip), vehicle: saline 102 % of control

O=C1c2ccccc2C(=O)c2c(O)c(CCCN3C(=O)c4ccccc4C3=O)cc(O)c21
inactive: endpoint: mean survival time, dose: 12.5 mg/kg/injection, schedule: Q01DX009 (ip), vehicle: other 89 % of control | endpoint: mean survival time, dose: 25.0 mg/kg/injection, schedule: Q01DX009 (ip), vehicle: other 87 % of control | endpoint: mean survival time, dose: 50.0 mg/kg/injection, schedule: Q01DX009 (ip), vehicle: other 87 % of control | endpoint: mean survival time, dose: 100.0 mg/kg/injection, schedule: Q01DX009 (ip), vehicle: other 89 % of control | endpoint: mean survival time, dose: 200.0 mg/kg/injection, schedule: Q01DX009 (ip), vehicle: other 97 % of control

CCOC(=O)NCCBr
inactive: endpoint: mean survival time, dose: 37.5 mg/kg/injection, schedule: Q01DX007 (ip), vehicle: saline 88 % of control | endpoint: mean survival time, dose: 75.0 mg/kg/injection, schedule: Q01DX007 (ip), vehicle: saline 97 % of control | endpoint: mean survival time, dose: 150.0 mg/kg/injection, schedule: Q01DX007 (ip), vehicle: saline 92 % of control

FC(F)(F)c1[nH]nc(-c2ccc(Cl)cc2)c1N=NN1CCOCC1
inactive: endpoint: mean survival time, dose: 75.0 mg/kg/injection, schedule: Q01DX001 (ip), vehicle: other 91 % of control | endpoint: mean survival time, dose: 150.0 mg/kg/injection, schedule: Q01DX001 (ip), vehicle: other 95 % of control

O=S(=O)(O)Sc1ccccc1
inactive: endpoint: mean survival time, dose: 25.0 mg/kg/injection, schedule: Q04DX003 (ip), vehicle: saline 97 % of control | endpoint: mean survival time, dose: 50.0 mg/kg/injection, schedule: Q04DX003 (ip), vehicle: saline 97 % of control | endpoint: mean survival time, dose: 100.0 mg/kg/injection, schedule: Q04DX003 (ip), vehicle: saline 98 % of control

O=S(CCO)c1c(Cl)c(Cl)c(Cl)c(Cl)c1Cl (configuration not stated)
inactive: endpoint: mean survival time, dose: 100.0 mg/kg/injection, schedule: Q04DX002 (ip), vehicle: saline with Tween-80 94 % of control | endpoint: mean survival time, dose: 200.0 mg/kg/injection, schedule: Q04DX002 (ip), vehicle: saline with Tween-80 94 % of control

O=C(c1ccccc1)C(Sc1ccccc1)Sc1ccccc1
inactive: endpoint: median survival time, dose: 50.0 mg/kg/injection, schedule: Q04DX002 (ip), vehicle: saline with Tween-80 100 % of control | endpoint: median survival time, dose: 100.0 mg/kg/injection, schedule: Q04DX002 (ip), vehicle: saline with Tween-80 100 % of control | endpoint: median survival time, dose: 200.0 mg/kg/injection, schedule: Q04DX002 (ip), vehicle: saline with Tween-80 100 % of control | endpoint: median survival time, dose: 400.0 mg/kg/injection, schedule: Q04DX002 (ip), vehicle: saline with Tween-80 110 % of control

CCCCCCCCCCCCCCCCOC(=O)c1cc([N+](=O)[O-])c(Sc2ncnc3nc[nH]c23)c([N+](=O)[O-])c1
inactive: endpoint: mean survival time, dose: 6.25 mg/kg/injection, schedule: Q01DX005 (ip), vehicle: other 105 % of control | endpoint: mean survival time, dose: 12.5 mg/kg/injection, schedule: Q01DX005 (ip), vehicle: other 110 % of control | endpoint: mean survival time, dose: 25.0 mg/kg/injection, schedule: Q01DX005 (ip), vehicle: other 107 % of control | endpoint: mean survival time, dose: 50.0 mg/kg/injection, schedule: Q01DX005 (ip), vehicle: other 117 % of control | endpoint: mean survival time, dose: 100.0 mg/kg/injection, schedule: Q01DX005 (ip), vehicle: other 102 % of control

N#Cc1cn(C2OC(CO)C(O)C2O)n2ccnc12 (configuration not stated)
inactive: endpoint: median survival time, dose: 12.5 mg/kg/injection, schedule: Q01DX005 (ip), vehicle: water 118 % of control | endpoint: median survival time, dose: 25.0 mg/kg/injection, schedule: Q01DX005 (ip), vehicle: water 102 % of control | endpoint: median survival time, dose: 50.0 mg/kg/injection, schedule: Q01DX005 (ip), vehicle: water 116 % of control | endpoint: median survival time, dose: 100.0 mg/kg/injection, schedule: Q01DX005 (ip), vehicle: water 109 % of control | endpoint: median survival time, dose: 200.0 mg/kg/injection, schedule: Q01DX005 (ip), vehicle: water 115 % of control

CC(Oc1ccccc1-c1ccccc1)C(=O)N(C)C (configuration not stated)
inactive: endpoint: mean survival time, dose: 12.5 mg/kg/injection, schedule: Q01DX009 (ip), vehicle: saline with Tween-80 93 % of control and 102 % of control | endpoint: mean survival time, dose: 25.0 mg/kg/injection, schedule: Q01DX009 (ip), vehicle: saline with Tween-80 95 % of control and 100 % of control | [6] 97 % of control and 104 % of control | [2] 97 % of control and 104 % of control | [3] 95 % of control and 102 % of control | [5] 97 % of control and 104 % of control

O=C1c2cccc([N+](=O)[O-])c2C(=O)c2c1cccc2[N+](=O)[O-]
inactive: [1] 103 % of control | [9] 102 % of control | [4] 96 % of control

S=C(NCCSSCCNC(=S)Nc1ccccc1)Nc1ccccc1
inactive: endpoint: mean survival time, dose: 100.0 mg/kg/injection, schedule: Q04DX003 (ip), vehicle: saline with Tween-80 98 % of control | endpoint: mean survival time, dose: 200.0 mg/kg/injection, schedule: Q04DX003 (ip), vehicle: saline with Tween-80 94 % of control | endpoint: mean survival time, dose: 400.0 mg/kg/injection, schedule: Q04DX003 (ip), vehicle: saline with Tween-80 86 % of control

c1ccc(-c2nnc(-c3ccccn3)nn2)nc1
inactive: endpoint: mean survival time, dose: 12.5 mg/kg/injection, schedule: Q01DX009 (ip), vehicle: Klucel (hydroxypropylcellulose) (HPC) 103 % of control | endpoint: mean survival time, dose: 25.0 mg/kg/injection, schedule: Q01DX009 (ip), vehicle: Klucel (hydroxypropylcellulose) (HPC) 101 % of control | endpoint: mean survival time, dose: 50.0 mg/kg/injection, schedule: Q01DX009 (ip), vehicle: Klucel (hydroxypropylcellulose) (HPC) 106 % of control | endpoint: mean survival time, dose: 100.0 mg/kg/injection, schedule: Q01DX009 (ip), vehicle: Klucel (hydroxypropylcellulose) (HPC) 101 % of control | endpoint: mean survival time, dose: 200.0 mg/kg/injection, schedule: Q01DX009 (ip), vehicle: Klucel (hydroxypropylcellulose) (HPC) 95 % of control | endpoint: mean survival time, dose: 400.0 mg/kg/injection, schedule: Q01DX009 (ip), vehicle: Klucel (hydroxypropylcellulose) (HPC) 101 % of control
